Data as given in patent US5623080A, “Fluorone and pyronin Y derivatives” (Spectra Group Limited, Inc., priority 1995, dated 1997).

Tests used:
[1] = absorption wavelength (λmax) and extinction (ε); type: physicochemical; settings: for λmax in EtOH (first value) / ε (first value) / λmax in EtOH / ε: Table 1, EtOH; for ε (first value): at first λmax, in M-1cm-1 (unit assumed); for ε: at second λmax; for absorption wavelength: comparison
[2] = double bond conversion (C=C% Conversion) by FTIR; settings: (1:2:3), DIDMA, 30 sec
Description: (§1) To a resin formulation consisting of 15 parts urethane diacrylate, 15 parts DPHPA, 20 parts TPGDA and 40 parts TMPTA was added DIDMA, initiator and (4-octyloxyphenyl)phenyliodonium hexafluoroantimonate (OPPI). The samples were coated to a thickness of 15 microns and exposed to a 75 W tungsten halogen dental lamp (focused through an optical fiber) at a distance of 0.75 inch at which the Light intensity was about 0.40 W/cm^2. The molar ratios are indicative of the amounts of fluorone to onium salt to amine coinitiator. The double bond conversion was determined by FTIR spectroscopy. The pencil hardness of a given test sample is measured by holding a pencil at a 45° angle to the sample and drawing across it towards the person testing it. Using the pencils in an order from softest to hardest, the first pencil that scratches the surface is assigned as the pencil hardness of the sample. The pencil hardness scale is as follows from softest to hardest: 4B, 3B, 2B, B, HB, H, 2H, 3H, 4H, 6H. For instance, if a 2H pencil is the first pencil to scratch the surface then the pencil hardness is 2H.

pencil hardness = settings: 0.05 wt. %
Description: as §1
At the extreme ends of the scale, it is impossible to determine the actual pencil hardness. […] Likewise, if the 4B pencil scratches the sample, the only assignment that can be made is <4B, unless it is a lot softer than 4B in which case a <<4B can be assigned. A pencil hardness of 4H is generally considered satisfactory. Pencil hardness data was greater than 6H after 30 seocnd exposure for all samples except for the control samples without amine (1:2:0). The controls were all less than 4B an 0.05 wt %, 0.10 wt %, and 0.15 wt %.
Photosensitive compositions were prepared from the resin formulation of Example 35 containing 1% NPG and 0.05% DIBF or 0.05% DIEF. The samples were exposed under the conditions shown in the following table and pencil hardness was measured.
Diphenyliodonium hexafluoroantimonate was added to DIBF samples.
Samples were also prepared using 1% DIDMA in addition to the fluorone for a 20:1 weight ratio.
Samples were also prepared from the same resin formulation containing 0.1% DIBF in addition to the coinitiator listed in the following Table 9 with the exposure condition and pencil hardness results shown.
Using the resin formulation of Example 36, photosensitive compositions were prepared using TIHF, DIDMA and OPPI at a concentration of 0.21% and in the molar ratios shown in Table 10 which follows. Exposure was conducted with the dental lamp at a distance of 1 inch from the sample to provide an intensity of about 0.26 W/cm^2. Molar ratios are fluorone:onium salt:amine.

depth of cure = test: depth of cure
Description: One of the advantages of the fluorone dye photoinitiators in this invention is the depth of the cure that is obtainable. This is in contrast to UV photoinitators that causes a "screening" effect which prevents the UV light from penetrating beyond a certain […] depth, usually several millimeters. By contrast, the fluorone dye bleaches as it photoinitiates and is concommitantly converted into a non-visible absorbing species thus allowing more visible light to penetrate which continues the cure. This cascading bleaching effect permits substantial depth of cure which can easily reach several inches.
An acrylate monomer mixture was composed of 15 parts urethane diacrylate, 20 parts TPGPA, 40 parts TMPTA and 15 parts DPHPA, and a 20 to 1 weight ratio of NPG coinitiator to DIEF or DIBF fluorone dye. For dye concentrations of 0.01, 0.05 and 0.1 weight, all the formulations cured to a depth of 3 cm in 30 seconds when exposed to a 350 watt tungsten halogen light which provides about 500 mw/cm^2 irradiance. When the irradiance was increased to about 2 watts/cm^2 cure speed was shortened to 5 seconds for the same depth.
An acrylate mixture was composed of 60% urethane diacrylate, 30% DPHPA, 10% BDDA, and 0.05 weight % of DIEF or DIBF fluorone dye with 2 weight % of DIDMA. The formulation cure to a depth greater than 1 cm in 10 seconds when exposed to a 75 watt tungsten halogen lamp which provided an irradiance of about 260 mw/cm^2.
An acrylate mixture was composed of 33% TMPTA, 33% DPHPA, 33% Epoxy acrylate, and 2% of DIDMA with either 0.01, 0.05 or 0.1 weight % of DIEF. All samples cured to a depth greater than 1 cm in 10 seconds when exposed to a 75 watt tungsten halogen.
An acrylate mixture was composed of 70% urethane diacrylate, 5% DPHPA, 25% BDDA, and 2% DIDMA with either 0.01, 0.03 or 0.1 weight % DIEF. The 0.01 and 0.03 samples cured after 2 passes through a 300 watt per inch medium pressure mercury arc lamp at a speed of 50 feet/minute to a depth greater than 3 mm. The 0.1 sample cured to a depth of greater than 1.5 mm.

fluorescence (λf, φf) = type: physicochemical; settings: 10^-7 M (footnote c)
Description: In Table 2 below, the properties of the foregoing initiators are shown:
Entries in the table are in the solvents according to the following order.

pKa = type: physicochemical
Description: (§2) In Table 2 below, the properties of the foregoing initiators are shown: […]

[3] = oxidation and reduction potentials (Eox, Ered); type: physicochemical; settings: in V (unit assumed)
Description: as §2

Compound: 5,7-diiodo-3-methoxy-6-fluorone [DIMF]
- λmax in EtOH (first value) [1]: 470
- ε (first value) [1]: 23,500

Compound: CCCCOc1ccc2c(C#N)c3cc(I)c(=O)c(I)c-3oc2c1 [Compound 7, 9-cyano-5,7-diiodo-3-butoxy-6-fluoorone]
- λmax in EtOH (first value) [1]: 600

Compound: N#Cc1c2cc(Br)c(=O)c(Br)c-2oc2c(Br)c(O)c(Br)cc12 [Compound 14, 9-cyano-3-hydroxy-2,4,5,7-tetrabromo-6-fluorone]
- λmax in EtOH [1]: 576
- λmax in EtOH (first value) [1]: 626
- ε (first value) [1]: 51400
- ε [1]: 24500 M⁻¹ cm⁻¹

Compound: CCCCCCCCc1cc2c(C#N)c3cc(I)c(=O)c(I)c-3oc2c(I)c1O [Compound 20, 9-cyano-3-hydroxy-4,5,7-triiodo-2-octyl-6-fluorone]
- λmax in EtOH (first value) [1]: 630
- ε (first value) [1]: 40,000
- absorption wavelength [1]: 630 nm
- λmax ([1]; in EtOH): 630 nm

Compound: CC(C)(C)c1cc2cc3cc(C(C)(C)C)c(=O)c(I)c-3oc2c(I)c1O [Compound 26, 2,7-di-t-butyl-4,5-diiodo-3-hydroxy-6-fluorone]
- λmax in EtOH (first value) [1]: 532
- ε (first value) [1]: 90800

Compound: CC(C)(C)c1cc2c(C#N)c3cc(C(C)(C)C)c(=O)c(I)c-3oc2c(I)c1O [Compound 27, 9-cyano-2,7-di-t-butyl-4,5-diiodo-3-hydroxy-6-fluorone]
- λmax in EtOH [1]: 582
- λmax in EtOH (first value) [1]: 636
- ε (first value) [1]: 68300
- ε [1]: 33600 M⁻¹ cm⁻¹

Compound: O=c1ccc2cc3ccc(O)cc3sc-2c1 [Compound 29, 3-hydroxy-6-thiafluorone]
- λmax in EtOH (first value) [1]: 524

Compound: CC(C)(C)c1cc2cc3cc(C(C)(C)C)c(=O)cc-3oc2cc1O [Compound 30, 2,7-di-t-butyl-3-hydroxy-6-fluorone]
- λmax in EtOH (first value) [1]: 518
- ε (first value) [1]: 101000

Compound: CC(C)(C)c1cc2c(C#N)c3cc(C(C)(C)C)c(=O)cc-3oc2cc1O [Compound 31, 9-cyano-2,7-di-t-butyl-3-hydroxy-6-fluorone]
- λmax in EtOH [1]: 564
- λmax in EtOH (first value) [1]: 614
- ε (first value) [1]: 47400
- ε [1]: 23200 M⁻¹ cm⁻¹

Compound: O=C(O)CCCc1cc2cc3ccc(O)cc3oc-2cc1=O [Compound 37a, 3-hydroxy-7-butyric acid-6-fluorone]
- λmax in EtOH (first value) [1]: 512

Compound: N#Cc1c2ccc(=O)cc-2oc2cc(O)c(CCCC(=O)O)cc12 [Compound 37b, 9-cyano-3-hydroxy-7-butyric acid-6-fluorone]
- λmax in EtOH (first value) [1]: 596
- ε (first value) [1]: 74,000

Compound: CCOc1ccc2cc3cc(I)c(=O)c(I)c-3oc2c1 [DIEF, 5,7-diiodo-3-ethoxy-6-fluorone]
- C=C% Conversion ([2]; 0.05 wt %): 40%
- λmax in EtOH (first value) [1]: 470
- ε (first value) [1]: 21,100
- Pencil hardness (pencil hardness; 1% DIDMA, Dental Lamp, Air, 60 sec): 3B
- Pencil hardness (pencil hardness; 1% DIDMA, Dental Lamp, No Air, 30 sec): 3B
- Pencil hardness (pencil hardness; 1% DIDMA, Dental Lamp, No Air, 60 sec): 2B
- Pencil hardness (pencil hardness; 1% DIDMA, Fusion (Q bulb), Air, 10 ft/min): 2B
- Pencil hardness (pencil hardness; 1% DIDMA, Fusion (Q bulb), Air, 20 ft/min): > 4B
- Pencil hardness (pencil hardness; 1% NPG, Dental Lamp, Air, 60 sec): 2B
- Pencil hardness (pencil hardness; 1% NPG, Dental Lamp, No Air, 10 sec): < 4B
- Pencil hardness (pencil hardness; 1% NPG, Dental Lamp, No Air, 30 sec): 2H
- Pencil hardness (pencil hardness; 1% NPG, Dental Lamp, No Air, 60 sec): 3H
- Pencil hardness (pencil hardness; 1% NPG, Fusion (Q bulb), Air, 10 ft/min): > 6H
- Pencil hardness (pencil hardness; 1% NPG, Fusion (Q bulb), Air, 20 ft/min): 3H
- Pencil hardness (pencil hardness; 1% NPG, Overhead Proj., Air, 60 sec): 3B
- Pencil hardness (pencil hardness; 1% NPG, Overhead Proj., No Air, 60 sec): 3H
- depth of cure (depth of cure; 0.01 and 0.03 weight %, 2 passes, 300 watt per inch medium pressure mercury arc lamp, 50 feet/minute, 2% DIDMA): greater than 3 mm
- depth of cure (depth of cure; 0.1 weight %, 300 watt per inch medium pressure mercury arc lamp, 50 feet/minute, 2% DIDMA): greater than 1.5 mm
- depth of cure (depth of cure; 10 seconds, 75 watt tungsten halogen, about 260 mw/cm^2, 0.05 weight % dye, 2 weight % DIDMA, 60% urethane diacrylate, 30% DPHPA, 10% BDDA): greater than 1 cm
- depth of cure (depth of cure; 10 seconds, 75 watt tungsten halogen, 0.01, 0.05 or 0.1 weight %, 2% DIDMA, TMPTA/DPHPA/Epoxy acrylate): greater than 1 cm
- depth of cure (depth of cure; 30 seconds, 350 watt tungsten halogen, about 500 mw/cm^2, dye 0.01, 0.05 and 0.1 weight, NPG 20 to 1): 3 cm
- cure time for the same depth (3 cm) (depth of cure; about 2 watts/cm^2, NPG 20 to 1): 5 s

Compound: CCCCCCCCOc1ccc2cc3cc(I)c(=O)c(I)c-3oc2c1 [DIOF, 5,7-diiodo-3-octoxy-6-fluorone]
- C=C% Conversion ([2]; 0.05 wt %): 40%
- C=C% Conversion ([2]; 0.15 wt %): 40%
- λmax in EtOH (first value) [1]: 470
- ε (first value) [1]: 31,600

Compound: O=c1ccc2cc3ccc(O)cc3oc-2c1 [HF, 3-Hydroxy-6-fluorone]
- φf (fluorescence (λf, φf)): .95
- pKa (pKa): 5.97
- Eox [3]: 1.34
- Ered [3]: -.99
- λmax in EtOH (first value) [1]: 504
- ε (first value) [1]: 24700
- λmax ([1]; methanol, synthesis example): 500 nm

Compound: Cc1ccc(-n2c3cc(=N)ccc-3cc3ccc(N)cc32)cc1 [N.phi.CH3 NH2 /NH2 + H H H H H]
- λmax in EtOH (first value) [1]: 472

Compound: C=CC(=O)OCCCCCCOc1ccc2cc3cc(I)c(=O)c(I)c-3oc2c1 [O O/O(CH2)6 OCOCH=CH2 H I H I H]
- λmax in EtOH (first value) [1]: 472

Compound: N#Cc1c2ccc(=O)cc-2oc2cc(O)ccc12 [O O/O^- CN H H H H, 9-Cyano-3-hydroxy-6-fluorone]
- λmax in EtOH [1]: 548
- λmax in EtOH (first value) [1]: 594
- ε (first value) [1]: 50300
- ε [1]: 24700 M⁻¹ cm⁻¹

Compound: CCOC(=O)CCCc1cc2cc3ccc(=O)cc-3oc2cc1O [O O/O^- H H H H (CH2)3 COOEt]
- λmax in EtOH (first value) [1]: 510

Compound: CCCCCCCCc1cc2cc3cc(I)c(=O)c(I)c-3oc2c(I)c1O [O O/O^- H I H I (CH2)7 CH3, 3-hydroxy-4,5,7-triiodo-2-octyl-6-fluorone]
- λmax in EtOH (first value) [1]: 534
- ε (first value) [1]: 92,600

Compound: N#Cc1c2ccc(=O)cc-2sc2cc(O)ccc12 [S O/O^- CN H H H H]
- λmax in EtOH (first value) [1]: 610

Compound: N#Cc1c2cc(I)c(=O)c(I)c-2oc2c(I)c(O)c(I)cc12 [TIHCF, 9-cyano-3-hydroxy-2,4,5,7-tetraiodo-6-fluorone]
- λmax in EtOH [1]: 586
- λmax in EtOH (first value) [1]: 638
- ε (first value) [1]: 80000
- ε [1]: 35000 M⁻¹ cm⁻¹
- absorption wavelength [1]: 636 nm
- λmax ([1]; ethanol, synthesis example): 638 nm
- depth of cure results (depth of cure; other fluorone dyes): have also been observed
